From US20220348558A1, “INHIBITORS OF ENCEPHALITIC ALPHAVIRUSES” (priority 2019, published 2022)
Read-outs that look alike come from different tables or passages of the source.

Key:
EEEV BeAr 436087 = experiment: microbe, parasite or virus in culture; type: cell-based; conditions: Eastern equine encephalitis virus, Vero 76, 48 h, read-out: EEEV BeAr 436087 EC50 nM
EEEV FL93-939 [1] = experiment: microbe, parasite or virus in culture; type: cell-based; conditions: Eastern equine encephalitis virus, Vero 76, 48 h, read-out: EEEV FL93-939 EC50
WEEV California = experiment: microbe, parasite or virus in culture; type: cell-based; conditions: Western equine encephalitis virus, Vero 76, 48 h, read-out: WEEV California EC50 nM
VEEV TC83 = experiment: microbe, parasite or virus in culture; type: cell-based; conditions: Venezuelan equine encephalitis virus, Vero 76, 48 h, read-out: VEEV TC83 EC50 nM
EEEV FL93-939 [2] = tested on: EEEV FL93-939; set-up: species or system C57BL/6 mice; conditions: mouse, in vivo
VEEV TrD = tested on: VEEV TrD; set-up: species or system BALB/C mice; conditions: mouse, in vivo

SMILES	EC50 (EEEV BeAr 436087) [nM]	EC50 (EEEV FL93-939 [1]) [nM]	EC50 (WEEV California) [nM]	EC50 (VEEV TC83) [nM]	% survival on day 21 (EEEV FL93-939 [2]; 12 mg/kg/day) [%]	% survival on day 21 (EEEV FL93-939 [2]; 25 mg/kg/day) [%]	% survival on day 21 (EEEV FL93-939 [2]; 50 mg/kg/day) [%]	day 14 % survival (VEEV TrD) [%]	survival rate (VEEV TrD; 12 mg/kg/day) [%]	survival rate (VEEV TrD; 24 mg/kg/day) [%]	survival rate (VEEV TrD; 48 mg/kg/day) [%]	melting point [°C]
COc1ccc(-n2c([C@H]3C[C@H](F)CN3)nc3c(-c4cccnc4)cc([N+](=O)[O-])cc3c2=O)cc1 [Example 86, 2-((2R,4S)-4-fluoropyrrolidin-2-yl)-3-(4-methoxyphenyl)-6-nitro-8-(pyridin-3-yl) quinazolin-4 (3H)-one]	51 to 150	51 to 150	1 to 50	1 to 50								
COc1ccc(-n2c([C@H]3CCCN3)nc3c(-c4ccc(F)nc4)cc([N+](=O)[O-])cc3c2=O)cc1F [Example 89, (R)-3-(3-fluoro-4-methoxyphenyl)-8-(6-fluoropyridin-3-yl)-6-nitro-2-(pyrrolidin-2-yl) quinazolin-4 (3H)-one]	51 to 150	51 to 150	1 to 50	1 to 50								
COc1ccc(-n2c([C@H]3CCCN3)nc3c(C)cc([N+](=O)[O-])cc3c2=O)cc1 [Example 55, (R)-3-(4-methoxyphenyl)-8-methyl-6-nitro-2-(pyrrolidin-2-yl) quinazolin-4 (3H)-one]	51 to 150	51 to 150	1 to 50	1 to 50	30	60	70	100	75	75	100	
COc1ccc(-n2c(C3CCCN3)nc3c(-c4ccc(C)nc4)cc(C#N)cc3c2=O)cc1F (stereo not drawn) [Example 101, 3-(3-fluoro-4-methoxyphenyl)-8-(6-methylpyridin-3-yl)-4-oxo-2-(pyrrolidin-2-yl)-3,4-dihydroquinazoline-6-carbonitrile]	51 to 150	51 to 150	1 to 50	1 to 50								
COc1ccc(-n2c([C@H]3C[C@H](F)CN3)nc3c(C)cc([N+](=O)[O-])cc3c2=O)cc1 [Example 61, 2-((2R,4S)-4-fluoropyrrolidin-2-yl)-3-(4-methoxyphenyl)-8-methyl-6-nitroquinazolin-4 (3H)-one]	51 to 150	51 to 150	51 to 150	1 to 50								183.06 to 185.34
COc1ccc(-n2c([C@H]3CCCN3C)nc3ccc([N+](=O)[O-])cc3c2=O)cc1 [Example 10, (R)-3-(4-methoxyphenyl)-2-(1-methylpyrrolidin-2-yl)-6-nitroquinazolin-4 (3H)-one]	51 to 150	151 to 500	151 to 500	1 to 50								
COc1ccc(-n2c([C@H]3CCCN3)nc3c(-c4ccc(C(F)(F)F)nc4)cc(C#N)cc3c2=O)cc1F [Example 100, (R)-3-(3-fluoro-4-methoxyphenyl)-4-oxo-2-(pyrrolidin-2-yl)-8-(6-(trifluoromethyl)pyridin-3-yl)-3,4-dihydroquinazoline-6-carbonitrile]	51 to 150	51 to 150	1 to 50	1 to 50								
